Consider one compound from patent publication US20230285339A1, “THERAPIES FOR TREATING AML AND USES OF RARA AGONISTS, HYPOMETHYLATING AGENTS, AND BCL-2 INHIBITORS” (Syros Pharmaceuticals, Inc., priority 2020, published 2023).

The subject of the test is AML samples. The test is described as follows: Beat AML ex vivo venetoclax sensitivity, proliferation assay on AML patient samples (AUC and IC50). It is filed as cell-based, human. The method, then: Venetoclax sensitivity in BeatAML: The BeatAML dataset a/so included ex vivo sensitivity analysis for a panel of 121 inhibitors, including venetoclax, in a proliferation assay on 248 of the AML samples measured by area under the curve (AUC) and IC50. Only some of the patient samples were queried for each inhibitor. Of the samples with at least 40% blasts, 90 were tested for venetoclax ex vivo sensitivity. To define the best possible association of gene expression with venetoclax AUC, we performed a logistic regression model with lasso regularization to predict venetoclax AUC from the expression of all expressed genes using the expression matrix quantile normalized with the TCGA dataset. The R package glmnet was used as described above in the section “Development of monocytic expression signature in TCGA.”
To define samples sensitive to venetoclax, we first identified an IC50 that could separate sensitive samples from insensitive samples, as follows. We consulted two references (Bogenberger et al., Oncotarget 8:107206-107222, 2017) and Ramsey et al. Cancer Discovery 8:1566-1581, 2018) that defined sensitive AML cells in the range of 20-60 nM and resistant AML cells around 1 μM, and we choose 100 nM as a threshold that splits this range. We then mapped 100 nM IC50 values from the BeatAML venetoclax ex vivo assay to AUC, which is a more robust quantitative measure of sensitivity, by selecting the AUC below which all samples have an IC50<100 nM, which led to the AUC threshold of 130. At this threshold, we found 35 AML samples sensitive to venetoclax and 55 AML samples resistant to venetoclax.
In the methods, RARA gene expression in non-APL AML was evaluated in the TCGA and Beat AML RNA-seq datasets. AUC of cell viability curves were used to evaluate ex vivo sensitivity to compounds, including venetoclax, in the Beat AML dataset. A monocytic MES was developed using the expression of monocytic and primitive RNA markers in the TCGA dataset to analyze the monocytic phenotype. The MES used a logistic regression model with lasso regularization to distinguish FAB M4/5 (monocytic) from FAB M0/1/2 (primitive) using 10-fold cross-validation with 85% sensitivity and 80% specificity. The MES was then applied to the RNA-seq datasets from Beat AML and AML blasts from ND unfit AML patients in the ongoing tamibarotene-plus-azacitidine trial (NCT02807558), in which RARA-positive patients were determined by an RT-qPCR-based biomarker clinical trial assay (CTA). The MES, RARA expression, and venetoclax resistance-associated features were compared using Spearman's rho correlation; the association of the MES with the RARA biomarker and with IWG clinical responses in tamibarotene plus Aza treated patients was evaluated.

Structures are written as SMILES.

Under “All 90 samples, AUC threshold 130”, `CC1(C)CCC(CN2CCN(c3ccc(C(=O)NS(=O)(=O)c4ccc(NCC5CCOCC5)c([N+](=O)[O-])c4)c(Oc4cnc5[nH]ccc5c4)c3)CC2)=C(c2ccc(Cl)cc2)C1` [venetoclax] gave an AML samples resistant of 55. The Percent sensitive is recorded as 39% (All patients (90 AML samples), AUC threshold 130); 11% (Monocytic AML patients (MES>0.5), N total 44); 65% (Primitive AML patients, N total 46); 0% (RARA-high patients, N total 21); 51% (RARA-low patients, N total 69). Besides, the N sensitive worked out at 35 (All patients (90 AML samples, at least 40% blasts), sensitive = AUC below threshold of 130 (IC50<100 nM)); 30 (Primitive AML patients (MES<0.5), N total 46); 35 (RARA-low patients, N total 69).
